Assays:
[1] = target: Human plasma kallikrein (Homo sapiens (Human), UniProt P03952); assay: Kallikrein Assay; type: biochemical; details: purified Human plasma kallikrein 0.5 nM, Acetyl-K-P-R-AFC, pH 7.4; Ki from IC50 by Cheng Prusoff
Outline: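 Purified human plasma kallikrein (0.5 nM final) with Acetyl-K-P-R-AFC substrate ([…]) in 50 mM HEPES pH 7.4, 150 mM NaCl, 5 mM CaCl2, 0.1% PEG 8000, after enzyme-inhibitor equilibration. Fluorescence (405 ex/510 em) under linear conditions; IC50 from four-parameter fit, converted to Ki by Cheng-Prusoff.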

[2] = target: human Factor XIa (Homo sapiens (Human), UniProt P03951); assay: Factor XIa Assay; type: biochemical; details: read-out: FXIa Ki
Sequence of human Factor XIa (P03951 388-625): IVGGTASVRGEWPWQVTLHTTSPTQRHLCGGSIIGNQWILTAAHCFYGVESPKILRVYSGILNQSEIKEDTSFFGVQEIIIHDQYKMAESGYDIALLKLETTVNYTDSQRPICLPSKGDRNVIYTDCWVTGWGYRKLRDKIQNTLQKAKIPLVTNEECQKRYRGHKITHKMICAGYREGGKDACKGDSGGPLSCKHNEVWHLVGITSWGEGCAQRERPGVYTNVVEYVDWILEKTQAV
Sequence of human Factor XIa (P03951 19-387 partner): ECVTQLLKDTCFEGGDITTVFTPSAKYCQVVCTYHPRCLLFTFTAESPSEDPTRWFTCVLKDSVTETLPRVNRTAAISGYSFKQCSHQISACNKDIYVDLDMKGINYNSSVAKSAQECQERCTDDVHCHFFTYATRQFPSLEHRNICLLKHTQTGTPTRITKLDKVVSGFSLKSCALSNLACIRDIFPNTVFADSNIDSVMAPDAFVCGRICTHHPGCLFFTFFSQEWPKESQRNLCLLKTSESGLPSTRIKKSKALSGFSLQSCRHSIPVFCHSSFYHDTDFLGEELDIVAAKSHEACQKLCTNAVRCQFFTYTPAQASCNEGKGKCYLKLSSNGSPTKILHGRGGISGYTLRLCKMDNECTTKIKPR
Outline: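 Ki derived from the dependence of Vo/Vi on inhibitor concentration under a competitive-inhibition model, after pre-equilibration of enzyme and inhibitor. Reaction: 40 pM human FXIa, 100 μM Z-Gly-Pro-Arg-AFC, HEPES 50 mM pH 7.4 with NaCl, CaCl2 and PEG 8000; run at room temperature or 37° C.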

Sequence of Human plasma kallikrein (P03952 391-638): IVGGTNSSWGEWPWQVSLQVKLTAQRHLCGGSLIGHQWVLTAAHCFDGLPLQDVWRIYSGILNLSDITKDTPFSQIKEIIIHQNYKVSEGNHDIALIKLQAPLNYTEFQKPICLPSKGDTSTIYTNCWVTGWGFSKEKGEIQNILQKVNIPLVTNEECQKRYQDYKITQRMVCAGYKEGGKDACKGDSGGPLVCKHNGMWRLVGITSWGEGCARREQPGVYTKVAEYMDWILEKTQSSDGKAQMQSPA
Sequence of Human plasma kallikrein (P03952 20-390 partner): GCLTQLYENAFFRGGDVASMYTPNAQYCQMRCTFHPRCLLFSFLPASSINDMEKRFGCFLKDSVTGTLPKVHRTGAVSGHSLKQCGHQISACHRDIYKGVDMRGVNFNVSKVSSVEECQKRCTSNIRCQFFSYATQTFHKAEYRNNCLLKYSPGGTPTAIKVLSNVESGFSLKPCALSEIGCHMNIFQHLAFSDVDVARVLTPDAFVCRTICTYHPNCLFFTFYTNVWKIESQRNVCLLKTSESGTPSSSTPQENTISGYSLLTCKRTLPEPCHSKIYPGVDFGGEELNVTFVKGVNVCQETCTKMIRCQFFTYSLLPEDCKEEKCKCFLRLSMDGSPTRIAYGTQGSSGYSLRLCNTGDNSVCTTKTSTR

Row | Structure (SMILES) | Ki [1] [nM] | Ki [2] [nM]
1 | COCCOC(=O)Nc1ccc(C(=O)N[C@@H](Cc2ccccc2)C(=O)N2CCC3(C2)OC(=O)Nc2ccc(Cl)cc23)cc1 (stereo partly drawn) [Example 164, 2-methoxyethyl (4-(((2S)-1-(6-chloro-2-oxo-1,2-dihydrospiro[benzo[d][1,3]oxazine-4,3′-pyrrolidin]-1′-yl)-1-oxo-3-phenylpropan-2-yl)carbamoyl)phenyl)carbamate] | 36 | 9.4
2 | O=C1CSc2cc(C(=O)N[C@@H](Cc3ccccc3)C(=O)N3CCC4(C3)OC(=O)Nc3ccc(Cl)cc34)ccc2N1 (stereo partly shown) [Example 165] | 27.5 | 14.6
3 | O=C1COc2cc(C(=O)N[C@@H](Cc3ccccc3)C(=O)N3CCC4(C3)OC(=O)Nc3ccc(Cl)cc34)ccc2N1 (stereo partly shown) [Example 171] | 58 | 21.8
4 | Nc1nc2ccc(C(=O)N[C@@H](Cc3ccccc3)C(=O)N3CCC4(C3)OC(=O)Nc3ccc(Cl)cc34)cc2s1 (stereo partly shown) [Example 181] | 50.7 | 18.7
5 | O=C1Nc2ccc(Cl)cc2C2(CCN(C(=O)[C@H](Cc3ccccc3)NC(=O)c3ccc(Nc4ncc[nH]4)cc3)C2)O1 (stereo partly shown) [Example 188] | 155 | 42
6 | CNC(=O)Nc1ccc(C(=O)N[C@@H](Cc2ccccc2)C(=O)N2CCC3(C2)OC(=O)Nc2ccc(Cl)cc23)cc1 (stereo partly drawn) [Example 189, N-((2S)-1-(6-chloro-2-oxo-1,2-dihydrospiro[benzo[d][1,3]oxazine-4,3′-pyrrolidin]-1′-yl)-1-oxo-3-phenylpropan-2-yl)-4-(3-methylureido)benzamide] | 51.3 | 17.6
7 | O=C(Nc1ccc(C(=O)N[C@@H](Cc2ccccc2)C(=O)N2CCC3(C2)OC(=O)Nc2ccc(Cl)cc23)cc1)OCCN1CCOCC1 (stereo partly drawn) [Example 191, 2-morpholinoethyl (4-(((2S)-1-(6-chloro-2-oxo-1,2-dihydrospiro[benzo[d][1,3]oxazine-4,3′-pyrrolidin]-1′-yl)-1-oxo-3-phenylpropan-2-yl)carbamoyl)phenyl)carbamate] | 123 | 33.5
8 | O=C(Nc1ccc(C(=O)N[C@@H](Cc2ccccc2)C(=O)N2CCC3(C2)OC(=O)Nc2ccc(Cl)cc23)cc1)OC[C@@H]1CCCO1 (stereo partly drawn) [Example 194, ((S)-tetrahydrofuran-2-yl)methyl (4-(((2S)-1-(6-chloro-2-oxo-1,2-dihydrospiro[benzo[d][1,3]oxazine-4,3′-pyrrolidin]-1′-yl)-1-oxo-3-phenylpropan-2-yl)carbamoyl)phenyl)carbamate] | 30.9 | 5.48
9 | Nc1n[nH]c2cc(C(=O)N[C@@H](Cc3ccccc3)C(=O)N3CC[C@@]4(C3)OC(=O)Nc3ccc(Cl)c(F)c34)ccc12 [Example 195] | 1.9 | 1
10 | Nc1n[nH]c2cc(C(=O)N[C@@H](Cc3ccccc3)C(=O)N3CCC[C@@]4(C3)OC(=O)Nc3ccc(Cl)cc34)ccc12 [Example 197] | 1.3 | 0.62
11 | O=C1Nc2ccc(Cl)cc2[C@@]2(CCN(C(=O)[C@H](Cc3ccccc3)NC(=O)c3ccc4[nH]c(=O)c(=O)[nH]c4c3)C2)O1 [Example 198] | 30.1 | 2.77
12 | O=C1Nc2ccc(Cl)cc2[C@@]2(CCCN(C(=O)[C@H](Cc3ccccc3)NC(=O)c3ccc4[nH]c(=O)cc(O)c4c3)C2)O1 [Example 199] | 0.6 | 0.6
13 | Nc1n[nH]c2cc(C(=O)N[C@@H](CC3CC3)C(=O)N3CCC[C@@]4(C3)OC(=O)Nc3ccc(Cl)cc34)ccc12 [Example 200] | 1 | 4.4
14 | O=C1Nc2ccc(Cl)cc2[C@@]2(CCCN(C(=O)[C@H](Cc3ccccc3)NC(=O)c3ccc(C(=O)O)s3)C2)O1 [Example 203] | 2.1 | 10.3
15 | CNc1cc(C(=O)N[C@@H](Cc2ccccc2)C(=O)N2CCC[C@@]3(C2)OC(=O)Nc2ccc(Cl)cc23)ccn1 [Example 206] | 1.7 | 14.5
16 | Nc1ccc(C(=O)N[C@@H](Cc2ccc(F)cc2)C(=O)N2CCC[C@@]3(C2)OC(=O)Nc2ccc(Cl)cc23)cc1C(=O)O [Example 208, 2-amino-5-(((S)-1-((R)-6-chloro-2-oxo-1,2-dihydrospiro[benzo[d][1,3]oxazine-4,3′-piperidin]-1′-yl)-3-(4-fluorophenyl)-1-oxopropan-2-yl)carbamoyl)benzoic acid] | 1.95 | 1.63
17 | O=C1Nc2ccc(Cl)c(F)c2[C@@]2(CCCN(C(=O)[C@H](Cc3ccccc3)NC(=O)c3ccc4[nH]c(=O)cc(O)c4c3)C2)O1 [Example 209] | 0.33 | 0.11
18 | O=C1Nc2ccc(Cl)c(F)c2[C@@]2(CCCN(C(=O)[C@H](CC3CC3)NC(=O)c3ccc4[nH]c(=O)[nH]c4c3)C2)O1 [Example 213] | 0.54 | 10.4

Row | Structure (SMILES) | Ki [1] [nM] | Ki [2] [nM]
19 | O=C1Nc2ccc(Cl)c(F)c2[C@@]2(CCCN(C(=O)[C@H](CC3CC3)NC(=O)c3ccc4[nH]nc(O)c4c3)C2)O1 [Example 214] | 1.4 | 0.7
20 | O=C1Nc2ccc(Cl)c(F)c2[C@@]2(CCCN(C(=O)[C@H](CC3CC3)NC(=O)c3ccc4c(O)n[nH]c4c3)C2)O1 [Example 215] | 2.6 | 13.8
21 | O=C1Nc2ccc(Cl)c(F)c2[C@@]2(CCCN(C(=O)[C@H](CC3CC3)NC(=O)c3cc4cc(O)ccc4[nH]3)C2)O1 [Example 216] | 1.7 | 37.6
22 | Nc1noc2cc(C(=O)N[C@@H](Cc3ccccc3)C(=O)N3CC[C@@]4(C3)OC(=O)Nc3ccc(Cl)cc34)ccc12 [Example 217] | 3.2 | 2.3
23 | Nc1n[nH]c2cc(C(=O)N[C@@H](Cc3ccccc3)C(=O)N3CCCC4(C3)OC(=O)Nc3ccc(Cl)c(F)c34)ccc12 (stereo partly shown) [Example 225] | 0.95 | 0.4
24 | COC(=O)n1nc(N)c2ccc(C(=O)N[C@@H](Cc3ccccc3)C(=O)N3CC[C@@]4(C3)OC(=O)Nc3ccc(Cl)cc34)cc21 [Example 226, Methyl 3-amino-6-(((S)-1-((R)-6-chloro-2-oxo-1,2-dihydrospiro[benzo[d][1,3]oxazine-4,3′-pyrrolidin]-1′-yl)-1-oxo-3-phenylpropan-2-yl)carbamoyl)-1H-indazole-1-carboxylate] | 23.2 | 18.1
25 | COC(=O)Nc1n[nH]c2cc(C(=O)N[C@@H](Cc3ccccc3)C(=O)N3CC[C@@]4(C3)OC(=O)Nc3ccc(Cl)cc34)ccc12 [Example 227, methyl (6-(((S)-1-((R)-6-chloro-2-oxo-1,2-dihydrospiro[benzo[d][1,3]oxazine-4,3′-pyrrolidin]-1′-yl)-1-oxo-3-phenylpropan-2-yl)carbamoyl)-1H-indazol-3-yl)carbamate] | 5 | 9
26 | O=C1Nc2ccc(Cl)cc2[C@@]2(CCN(C(=O)[C@H](Cc3ccccc3)NC(=O)c3ccc4[nH]c(=O)[nH]c(=O)c4c3)C2)O1 [Example 228] | 19.3 | 17.1
27 | COCC(=O)Nc1ccc(C(=O)N[C@@H](Cc2ccccc2)C(=O)N2CCC[C@@]3(C2)OC(=O)Nc2ccc(Cl)c(F)c23)cc1 [Example 230, N-((S)-1-((R)-6-chloro-5-fluoro-2-oxo-1,2-dihydrospiro[benzo[d][1,3]oxazine-4,3′-piperidin]-1′-yl)-1-oxo-3-phenylpropan-2-yl)-4-(2-methoxyacetamido)benzamide] | 2.72 | 17.3
28 | CC(C)OC(=O)Nc1ccc(C(=O)N[C@@H](Cc2ccccc2)C(=O)N2CCC[C@@]3(C2)OC(=O)Nc2ccc(Cl)c(F)c23)cc1 [Example 231, isopropyl (4-(((S)-1-((R)-6-chloro-5-fluoro-2-oxo-1,2-dihydrospiro[benzo[d][1,3]oxazine-4,3′-piperidin]-1′-yl)-1-oxo-3-phenylpropan-2-yl)carbamoyl)phenyl)carbamate] | 4.74 | 35.1
29 | O=C1Nc2ccc(Cl)c(F)c2[C@@]2(CCCN(C(=O)[C@H](Cc3ccccc3)NC(=O)c3ccc(B(O)O)s3)C2)O1 [Example 233] | 2.44 | 7.88
30 | COC(=O)Nc1cnc(C(=O)N[C@@H](Cc2ccccc2)C(=O)N2CCC[C@@]3(C2)OC(=O)Nc2ccc(Cl)c(F)c23)nc1 [Example 234] | 3.03 | 16.9
31 | O=C1Nc2ccc(Cl)c(F)c2[C@@]2(CCCN(C(=O)[C@H](Cc3ccccc3)NC(=O)c3ccc(-c4ncc[nH]4)s3)C2)O1 [Example 235] | 0.87 | 1.26
32 | O=C1Nc2ccc(Cl)c(F)c2[C@@]2(CCCN(C(=O)[C@H](CC3CC3)NC(=O)c3ccc(-c4ncc[nH]4)s3)C2)O1 [Example 237] | 0.96 | 5.85
33 | CC(=O)Nc1ccc(C(=O)N[C@@H](Cc2ccccc2)C(=O)N2CCC[C@@]3(C2)OC(=O)Nc2ccc(Cl)c(F)c23)cc1 [Example 240, 4-acetamido-N-((S)-1-((R)-6-chloro-5-fluoro-2-oxo-1,2-dihydrospiro[benzo[d][1,3]oxazine-4,3′-piperidin]-1′-yl)-1-oxo-3-phenylpropan-2-yl)benzamide] | 1.49 | 4.28
34 | COC(=O)NCc1ccc(C(=O)N[C@@H](Cc2ccccc2)C(=O)N2CCC[C@@]3(C2)OC(=O)Nc2ccc(Cl)c(F)c23)cc1 [Example 241, methyl (4-(((S)-1-((R)-6-chloro-5-fluoro-2-oxo-1,2-dihydrospiro[benzo[d][1,3]oxazine-4,3′-piperidin]-1′-yl)-1-oxo-3-phenylpropan-2-yl)carbamoyl)benzyl)carbamate] | 2.13 | 53.9
35 | NC(=O)c1ccc(C(=O)N[C@@H](Cc2ccccc2)C(=O)N2CCC[C@@]3(C2)OC(=O)Nc2ccc(Cl)c(F)c23)s1 [Example 245] | 0.65 | 0.97
